Literature values as cited in PMC3322358 (Chemistry & biology, 2008).

System: CFTR
Conditions: ref Muanprasat et al., 2004

O=C(CNc1ccc2ccccc2c1)N/N=C/c1cc(Br)c(O)c(Br)c1O [GlyH-101]
time constant of CFTR channel block: 8 to 10 ms
